Results: PMC7261837, “Circumdatin D Exerts Neuroprotective Effects by Attenuating LPS-Induced Pro-Inflammatory Responses and Downregulating Acetylcholinesterase Activity In Vitro and In Vivo” (Frontiers in Pharmacology, 2020)

How the values were obtained:
[1] = tested on: BV-2 cells; experiment: LPS-induced NO production in BV-2 cells (Griess method); format: cell-based, murine; settings: 1 μg/ml LPS, 24 h
Description: BV-2 cells (murine microglia cell line) was obtained from Peking Union Medical College, Cell Bank (Beijing, China) and maintained in DMEM containing 10% FBS. Cells were grown in a humidified atmosphere of 5% CO2 incubator at 37°C.
BV2 cells were seeded and incubated overnight, and followed by treatment with different doses of circumdatins for indicated period with or without LPS (1 μg/ml) stimulation. The cells without circumdatins and LPS treatment were used as the control group.
The NO levels in culture media was determined using a Griess method. Cells were treated with different concentrations of circumdatins in the presence or absence of LPS for 24 h. After that, the supernatant fraction of the culture media was collected and mixed with the same volume of Griess reagent (1% sulfanilamide/0.1% naphthyl ethylene diamine dihydrochloride/2% H3PO4). Then, the absorbance was measured at 540 nm using a microplate spectrophotometer (Thermo Scientifics, USA). The concentration of nitrite was calculated from a calibration curve obtained from standards sodium nitrite solutions.

[2] = tested on: NF-κB; experiment: NF-κB luciferase reporter assay; format: cell-based; settings: Homo sapiens; SW480 cells stably transfected with NF-κB luciferase reporter gene, induced by LPS; mean ± SD (n = 3); read-out: NF-κB Activation IC50
Description: SW480-NF-κB cells were seeded at a density of 5 × 10^4 cells/well in 24-well plates and incubated with circumdatins with or without LPS stimulation for 6 h. The κB-dependent luciferase reporter activity in cell extracts was monitored using an automated microplate reader.

[3] = biological target: T1, acetylcholinesterase (AChE) from Electrophorus electrics (Electric eel) (Electrophorus electricus, UniProt O42275); experiment: biochemical; settings: modified Ellman's colorimetric method; mean ± SD (n = 3)
T1 construct: purchased Sigma Chemical Co. (St Louis, MO, USA)
Source text: Dulbecco's modified Eagle medium (DMEM), α-minimum essential medium (α-MEM) and fetal bovine serum (FBS) were provided by Hyclone (Waltham, USA). 3-(4,5-Dimethylthiazol-2-yl)-2,5-diphenyltetrazolium bromide (MTT), acetylcholinesterase (AChE) from Electrophorus electrics (Electric eel) and lipopolysaccharide (LPS) (Escherichia coli 055: B5) were provided by Sigma Chemical Co. (St Louis, MO, USA). Enzyme-linked immunosorbent assay (ELISA) kits for IL-1β and TNF-α and Griess reagent for nitric oxide (NO) assay kit were provided by ExCell Bio (Shanghai, China). Antibodies for TLR4, MyD88, JNK, p-JNK, p38, p-p38, ERK, p-ERK, IκB, p-IκB, IKK, p-IKK, NF-κB, STAT3、p-STAT3、Jak2, p-Jak2, GAPDH and Histone H3 were purchased from Cell Signaling Technology (Danvers, USA). Antibodies for iNOS and COX-2 were provided by Abcam (Cambridge, UK).
AChE activities in vitro and in vivo were assessed by a modified Ellman's spectrophotometric method ([Szwajgier, 2015]). Briefly, AChE (80 μl) in phosphate buffer (Na2HPO4/NaH2PO4, pH 8.0) and compound (20 μl) diluted in same phosphate buffer were added to 96 microplates as the reaction mixture. The mixture was incubated at 37°C for 30 min before addition of 10 μl 5,5′-dithiobis (2-nitrobenzoic acid) (DTNB) (3 mM) and 10 μl acetylthiocholine iodide (ATCI) (15 mM). After incubation for 20 min, the absorbance was detected at 412 nm using a microplate spectrophotometer (Thermo Scientifics, USA). […] The inhibitory rate of AChE was calculated, and the IC50 values were calculated by GraphPad Prism® 5.0 software (GraphPad Inc., San Diego, USA).

[4] = biological target: Recombinant AChE (Homo sapiens, UniProt P22303); experiment: biochemical; settings: SPR, 25°C, 1:1 Langmuir binding model; read-out: AChE Affinity Kd
Description: The experiments for surface plasmon resonance (SPR) interaction were conducted at 25°C using the Biacore T200 system (GE Healthcare, Sweden). Recombinant AChE diluted in sodium acetate buffer (100 mM, pH 4.5) was used as the stock for the following experiments. CM5 sensor chips were coupled with AChE using an amine coupling kit (GE Healthcare, Buckinghamshire, UK). Thereafter, different concentrations of compounds were injected as analytes using PBS-P (10mM phosphate buffer with 2.7 mM KCl and 137 mM NaCl, 0.05% polysorbate 20, […]) as running buffer. For binding assays, the analytes were introduced with a 60 s contact time followed by a 60 s dissociation time at a flow rate of 45 μl/min. The surface was regenerated with 10 mM glycine (pH 3.0) for 30 s. The affinity constants were calculated using the 1:1 Langmuir binding model of Biacore evaluation software (T200 Version 1.0).

Chain of Recombinant AChE (P22303 32-614): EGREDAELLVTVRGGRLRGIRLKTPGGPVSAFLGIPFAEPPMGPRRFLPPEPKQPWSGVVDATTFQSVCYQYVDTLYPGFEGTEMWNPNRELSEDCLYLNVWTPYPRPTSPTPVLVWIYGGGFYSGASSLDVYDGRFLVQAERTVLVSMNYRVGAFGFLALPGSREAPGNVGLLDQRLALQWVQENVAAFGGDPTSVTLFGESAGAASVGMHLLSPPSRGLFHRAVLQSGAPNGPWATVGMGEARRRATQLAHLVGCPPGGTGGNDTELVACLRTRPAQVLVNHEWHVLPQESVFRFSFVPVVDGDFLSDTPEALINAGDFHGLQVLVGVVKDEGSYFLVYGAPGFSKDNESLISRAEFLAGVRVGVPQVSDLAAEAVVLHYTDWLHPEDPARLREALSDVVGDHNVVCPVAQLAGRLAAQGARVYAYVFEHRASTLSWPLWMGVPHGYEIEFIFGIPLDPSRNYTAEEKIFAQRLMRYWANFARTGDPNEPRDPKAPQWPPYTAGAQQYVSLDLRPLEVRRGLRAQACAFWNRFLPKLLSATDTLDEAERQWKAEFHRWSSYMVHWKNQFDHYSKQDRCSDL
T1 sequence (O42275 24-633): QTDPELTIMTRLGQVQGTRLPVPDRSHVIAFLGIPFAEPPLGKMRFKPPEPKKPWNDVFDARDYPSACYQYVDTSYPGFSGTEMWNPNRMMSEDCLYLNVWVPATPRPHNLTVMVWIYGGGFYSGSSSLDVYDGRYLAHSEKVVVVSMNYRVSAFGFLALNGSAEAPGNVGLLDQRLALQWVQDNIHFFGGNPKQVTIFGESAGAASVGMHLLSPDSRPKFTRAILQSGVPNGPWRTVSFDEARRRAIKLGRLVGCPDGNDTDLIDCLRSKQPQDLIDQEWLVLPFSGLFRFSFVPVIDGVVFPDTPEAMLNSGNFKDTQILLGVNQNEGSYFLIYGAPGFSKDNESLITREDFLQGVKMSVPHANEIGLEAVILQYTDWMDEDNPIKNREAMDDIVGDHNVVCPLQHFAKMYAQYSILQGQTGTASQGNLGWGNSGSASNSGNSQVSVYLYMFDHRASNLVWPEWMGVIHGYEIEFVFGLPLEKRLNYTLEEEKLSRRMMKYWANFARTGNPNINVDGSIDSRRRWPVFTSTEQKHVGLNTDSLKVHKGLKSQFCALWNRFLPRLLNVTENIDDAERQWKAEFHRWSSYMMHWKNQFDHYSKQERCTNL

| SMILES | LPS-induced NO production [1] | IC50 [2] [µM] | IC50 [3] [µM] | Kd [4] [µM] |
| --- | --- | --- | --- | --- |
| COc1ccc2nc3n(c(=O)c2c1)-c1ccccc1C(=O)N1CCC[C@@H]31 [circumdatin H] | decreased NO production only in high dose | 33.3 ± 1.4 | 98 ± 5.7 | 95 |
| C[C@@H]1NC(=O)c2ccccc2-n2c1nc1c(O)cccc1c2=O [circumdatin G] | significant reduction of NO levels | 18.9 ± 2.1 | 15.8 ± 2 | 120 |
| C[C@@H]1NC(=O)c2ccccc2-n2c1nc1ccccc1c2=O [circumdatin F] | decreased NO production only in high dose | 11.8 ± 0.9 | 10 ± 1.9 | 240 |
| C[C@@H]1NC(=O)c2cc(O)ccc2-n2c1nc1c(O)cccc1c2=O [circumdatin I] | decreased NO production only in high dose | 18.6 ± 1.9 | 11.6 ± 2.6 | 65 |
| C[C@@H]1NC(=O)c2cc(O)ccc2-n2c1nc1ccccc1c2=O [circumdatin C] | decreased NO production only in high dose | 15.6 ± 2.3 | – | 85 |
| C[C@@H]1NC(=O)c2cc(O)c(O)cc2-n2c1nc1ccccc1c2=O [2-hydroxycircumdatin C] | – | 16.5 ± 1.9 | 5.6 ± 0.9 | 3.6 |
